Patent US10632181B2, “Composition, containing RGD motif-containing peptide or fragment thereof, for treating burns and glaucoma, alleviating skin wrinkles, and promoting hair growth” (HUONS CO., LTD., priority 2014, dated 2020)

How the values were obtained:
Assay type in all cases: in vivo, Women aged 30-65
wrinkles around eyes [1] = assay: Survey of subjects about wrinkle reduction effectiveness
Procedure: Furthermore, surveying the subjects about effectiveness was conducted. The subjects were asked to personally make responses about the extent to which the subjects felt that wrinkles reduced after use of test product using 5 levels: better (4), a little bit better (3), no change (2), a little bit worse (1), worse (0). The researcher determined if test product has efficacy by calculating the percentage of the number of subjects for each response.

wrinkles around eyes [2] = assay: Wrinkle extent around eyes by 3D imaging (PRIMOS Premium); conditions: for Rmax numerical value (maximum height of wrinkle profile) / Rp numerical value (maximum profile peak height) / Rv numerical value (maximum profile valley depth): in µm (unit assumed)
Procedure: Furthermore, the wrinkle extent was measured by 3D imaging. A target site to measure the wrinkle extent was regions around the eyes of the subjects, and the right side of the face was set as a measurement site. To measure the wrinkle extent, the subjects were allowed to wash the measurement site with water, and take a rest for 30 minutes in the waiting room under constant temperature constant humidity conditions of indoor temperature 20-25° C. and humidity 40-60% to acclimate the skin surface temperature and humidity to the environment of the measurement space, and were not permitted to drink water during the rest. For objective measurement, measurements were performed by one researcher, and the same site was measured at each time of the first visit before use and the second and third visits in 2 and 4 weeks after use. Before use and in 2 and 4 weeks after use, images of the site to which the test product (HU022 (SEQ ID NO:1)) was applied were formed using 3D skin imaging machine (PRIMOS Premium), and to verify if there is any difference in each of control group and experimental group in 4 weeks after use, wrinkle parameters, Ra, Rmax, Rt, Rp, Rv values, in the stored images of 2 weeks and 4 weeks after use relative to before use were analyzed.

wrinkles around eyes [3] = assay: Expert visual assessment of wrinkles (global photodamage score); conditions: for expert visual assessment score: severity 0-7
Procedure: Furthermore, visual assessment was performed. At each visit before and after use, experts assessed the wrinkle extent by scoring using global photodamage score (Br J Dermatol. 2010; 162(3):497-502). To verify if there is any difference in each of control group and experimental group in 4 weeks after use, a change (%) in visual assessment scores of 2 weeks and 4 weeks after use relative to before use was analyzed. The visual assessment scores are as follows (Table 18): […]

wrinkles around eyes [4] = assay: Wrinkle extent around eyes, skin replica, Visiometer SV600; design: R3 numerical value (average roughness): unit not given here; conditions: Before use
wrinkles around eyes [5] = assay: as above; design: R3 numerical value (average roughness) / R1 numerical value (skin roughness) / R4 numerical value (smoothness depth) / R5 numerical value (arithmetic average roughness): unit not given here
Procedure: The extent of wrinkles around eyes was measured using equipment. A target site to measure the wrinkle extent was regions around the eyes of the subjects, and the left side and the right side of the face were set as a measurement site. To measure the wrinkle extent, the subjects were allowed to wash the measurement site with water, and take a rest for 30 minutes in the waiting room under constant temperature and constant humidity conditions of indoor temperature 20-25° C. and humidity 40-60% to acclimate the skin surface temperature and humidity to the environment of the measurement space, and were not permitted to drink water during the rest. For objective measurement, measurements were performed by one researcher, and the same site was measured at each time of the first visit before use and the second and third visits in 2 and 4 weeks after use. Transparency profilometry analysis was performed using Visiometer SV600 (Courage-Khazaka electronic GmbH, Germany) on skin replica of the site to which test product and control product were applied before use and 2 and 4 weeks after use, and to identify if there is any difference in each of control group and experimental group after use, a change (%) in R1, R2, R4, R5 measurement values in 2 and 4 weeks after use relative to before use was analyzed.

[6] = response 2 (fair), 4 weeks after use
[7] = response 3 (good), 4 weeks after use

Substance: HU022: polypeptide consisting of 452nd-509th amino acids of ADAM 15 (GenBank AAH14566.1), 58 amino acids; commercial product (EYEGENE Inc.)
- Number of subjects, wrinkle reduction survey (wrinkles around eyes [1]; response 0 (very bad), 4 weeks after use): 0
- Number of subjects, wrinkle reduction survey (wrinkles around eyes [1]; response 1 (bad), 4 weeks after use): 0
- Number of subjects, wrinkle reduction survey (wrinkles around eyes [1]; [6]): 1
- Percentage of subjects, wrinkle reduction survey (wrinkles around eyes [1]; [6]): (16.7) %
- Number of subjects, wrinkle reduction survey (wrinkles around eyes [1]; [7]): 5
- Percentage of subjects, wrinkle reduction survey (wrinkles around eyes [1]; [7]): (83.3) %
- Number of subjects, wrinkle reduction survey (wrinkles around eyes [1]; response 4 (very good), 4 weeks after use): 0
- Mean of wrinkle reduction survey response (wrinkles around eyes [1]; scale 0-4, 4 weeks after use): 2.83
- survey assessment about wrinkle reduction, test product versus control product (wrinkles around eyes [1]; third visit, 4 weeks after use): test product was better at reducing wrinkles than control product
- Ra numerical value (roughness average of wrinkle profile) (wrinkles around eyes [2]; 2 weeks after use, twice daily): 18.20 ± 3.94
- Rt numerical value (distance between highest peak and lowest valley) (wrinkles around eyes [2]; 2 weeks after use, twice daily): 187.85 ± 34.10
- Rmax numerical value (maximum height of wrinkle profile) (wrinkles around eyes [2]; 2 weeks after use, twice daily): 168.83 ± 29.61
- Rp numerical value (maximum profile peak height) (wrinkles around eyes [2]; 2 weeks after use, twice daily): 116.47 ± 35.75
- Rv numerical value (maximum profile valley depth) (wrinkles around eyes [2]; 2 weeks after use, twice daily): 71.38 ± 16.44
- Ra numerical value (roughness average of wrinkle profile) (wrinkles around eyes [2]; 4 weeks after use, twice daily): 17.00 ± 3.88
- Rt numerical value (distance between highest peak and lowest valley) (wrinkles around eyes [2]; 4 weeks after use, twice daily): 184.63 ± 36.83
- Rmax numerical value (maximum height of wrinkle profile) (wrinkles around eyes [2]; 4 weeks after use, twice daily): 168.80 ± 33.21
- Rp numerical value (maximum profile peak height) (wrinkles around eyes [2]; 4 weeks after use, twice daily): 121.88 ± 38.06
- Rv numerical value (maximum profile valley depth) (wrinkles around eyes [2]; 4 weeks after use, twice daily): 62.75 ± 11.92
- Ra numerical value (roughness average of wrinkle profile) (wrinkles around eyes [2]; Before use): 19.19 ± 4.27
- Rt numerical value (distance between highest peak and lowest valley) (wrinkles around eyes [2]; Before use): 195.05 ± 31.31
- Change(%) in Ra (wrinkles around eyes [2]; Before use-2 weeks after use): −5.15%
- Change(%) in Rmax (wrinkles around eyes [2]; Before use-2 weeks after use): −4.23%
- Change(%) in Rp (wrinkles around eyes [2]; Before use-2 weeks after use): −5.10%
- Change(%) in Rt (wrinkles around eyes [2]; Before use-2 weeks after use): −3.69%
- Change(%) in Rv (wrinkles around eyes [2]; Before use-2 weeks after use): −1.30%
- Change(%) in Ra (wrinkles around eyes [2]; Before use-4 weeks after use): −11.42%
- Change(%) in Rmax (wrinkles around eyes [2]; Before use-4 weeks after use): −4.25%
- Change(%) in Rp (wrinkles around eyes [2]; Before use-4 weeks after use): −0.70%
- Change(%) in Rt (wrinkles around eyes [2]; Before use-4 weeks after use): −5.35%
- Change(%) in Rv (wrinkles around eyes [2]; Before use-4 weeks after use): −13.24%
- Rmax numerical value (maximum height of wrinkle profile) (wrinkles around eyes [2]; Before use): 176.29 ± 27.79
- Rp numerical value (maximum profile peak height) (wrinkles around eyes [2]; Before use): 122.73 ± 31.55
- Rv numerical value (maximum profile valley depth) (wrinkles around eyes [2]; Before use): 72.32 ± 17.16
- expert visual assessment score (wrinkles around eyes [3]; 2 weeks after use): 2.17 ± 0.75
- expert visual assessment score (wrinkles around eyes [3]; 4 weeks after use): 1.67 ± 1.03
- expert visual assessment score (wrinkles around eyes [3]; Before use): 2.17 ± 0.75
- Change(%) in expert visual assessment score (wrinkles around eyes [3]; Before use-2 weeks after use): 0%
- Change(%) in expert visual assessment score (wrinkles around eyes [3]; Before use-4 weeks after use): −23.08%
- R3 numerical value (average roughness) (wrinkles around eyes [4]): 34.24 ± 3.51
- R1 numerical value (skin roughness) (wrinkles around eyes [5]; 2 weeks after use, twice daily): 54.59 ± 10.99
- R2 numerical value (maximum roughness) (wrinkles around eyes [5]; 2 weeks after use, twice daily): 36.87 ± 6.02
- R3 numerical value (average roughness) (wrinkles around eyes [5]; 2 weeks after use, twice daily): 24.41 ± 4.16
- R4 numerical value (smoothness depth) (wrinkles around eyes [5]; 2 weeks after use, twice daily): 23.64 ± 5.11
- R5 numerical value (arithmetic average roughness) (wrinkles around eyes [5]; 2 weeks after use, twice daily): 9.44 ± 2.44
- R1 numerical value (skin roughness) (wrinkles around eyes [5]; 4 weeks after use, twice daily): 51.06 ± 19.28
- R2 numerical value (maximum roughness) (wrinkles around eyes [5]; 4 weeks after use, twice daily): 29.16 ± 5.12
- R3 numerical value (average roughness) (wrinkles around eyes [5]; 4 weeks after use, twice daily): 18.62 ± 2.79
- R4 numerical value (smoothness depth) (wrinkles around eyes [5]; 4 weeks after use, twice daily): 22.94 ± 10.03
- R5 numerical value (arithmetic average roughness) (wrinkles around eyes [5]; 4 weeks after use, twice daily): 10.10 ± 5.97
- R1 numerical value (skin roughness) (wrinkles around eyes [5]; Before use): 76.23 ± 12.15
- R2 numerical value (maximum roughness) (wrinkles around eyes [5]; Before use): 54.26 ± 5.70
- R4 numerical value (smoothness depth) (wrinkles around eyes [5]; Before use): 30.41 ± 7.01
- R5 numerical value (arithmetic average roughness) (wrinkles around eyes [5]; Before use): 13.57 ± 3.65
- Change(%) in R1 (wrinkles around eyes [5]; Before use-2 weeks after use): −28.38%
- Change(%) in R4 (wrinkles around eyes [5]; Before use-2 weeks after use): −22.27%
- Change(%) in R5 (wrinkles around eyes [5]; Before use-2 weeks after use): −30.43%
- Change(%) in R1 (wrinkles around eyes [5]; Before use-4 weeks after use): −33.02%
- Change(%) in R3 (wrinkles around eyes [5]; Before use-4 weeks after use): −45.62%
- Change(%) in R4 (wrinkles around eyes [5]; Before use-4 weeks after use): −24.57%
- Change(%) in R5 (wrinkles around eyes [5]; Before use-4 weeks after use): −26.52%
